Biological target: Programmed cell death 1 ligand/protein 1 (Homo sapiens, UniProt Q9NZQ7)
Assay: PD1-PDL1 HTRF Binding Activity Test
Description: The effect of compounds of the examples of the present invention on the PD-1/PD-L1 interaction was determined by the PD-1/PD-L1 binding assay kit from Cisbio (#64ICP01PEG or 64ICP01PEH).

Programmed cell death 1 ligand/protein 1, sequence (Q9NZQ7 whole entry): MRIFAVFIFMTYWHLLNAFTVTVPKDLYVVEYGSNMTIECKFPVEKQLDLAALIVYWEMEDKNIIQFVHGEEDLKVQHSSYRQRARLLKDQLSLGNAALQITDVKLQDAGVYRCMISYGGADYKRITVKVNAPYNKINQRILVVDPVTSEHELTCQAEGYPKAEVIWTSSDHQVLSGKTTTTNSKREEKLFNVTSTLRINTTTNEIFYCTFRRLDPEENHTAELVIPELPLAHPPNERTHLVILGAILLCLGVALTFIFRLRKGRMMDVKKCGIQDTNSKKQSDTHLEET
Programmed cell death 1 ligand/protein 1, sequence (Q15116 whole entry, further chain): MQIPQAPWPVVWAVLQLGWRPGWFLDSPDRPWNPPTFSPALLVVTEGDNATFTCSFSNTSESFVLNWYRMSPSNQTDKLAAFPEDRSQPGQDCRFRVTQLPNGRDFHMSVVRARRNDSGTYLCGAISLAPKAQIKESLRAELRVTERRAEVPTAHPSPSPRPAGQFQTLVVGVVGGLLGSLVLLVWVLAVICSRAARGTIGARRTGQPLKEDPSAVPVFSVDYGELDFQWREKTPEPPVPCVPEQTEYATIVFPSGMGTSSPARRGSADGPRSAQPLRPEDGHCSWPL

Compound: Cc1c(NC(=O)c2cc(C3CC3)c(CNCCC34CCC(C(=O)O)(CC3)C4)cn2)cccc1-c1cccc(NC(=O)c2cc(C3CC3)c(CNC34CCC(C(=O)O)(CC3)C4)cn2)c1C [US20250179023, Example 5]
- IC50: 4.19 nM
